# Reference: ChEMBL document CHEMBL1131144, “N-Substituted 9beta-methyl-5-(3-hydroxyphenyl)morphans are opioid receptor pure antagonists” (J Med Chem, 1998)
# Tests used:
# [1] = target: Delta-type opioid receptor (Rattus norvegicus, UniProt P33533); test: Binding activity against Opioid receptor delta 1 using [3H]DADLE as radioligand in rat brain membranes.; type: cell membranes
# [2] = target: Mu-type opioid receptor (Cavia porcellus, UniProt P97266); test: Inhibition of [35S]GTP-gamma-S, binding in guinea pig caudate stimulated by DAMGO (Opioid receptor mu 1); type: functional
# [3] = target: T1, Kappa-type opioid receptor (Cavia porcellus, UniProt P41144); test: Inhibition of [35S]GTP-gamma-S, binding in guinea pig caudate stimulated by U69,593 in Opioid receptor kappa 1; type: functional
# [4] = target: T1, Kappa-type opioid receptor; test: Binding activity against Opioid receptor kappa 1 using [3H]U-69593 as radioligand in guinea pig membranes.; type: cell membranes
# [5] = target: Mu-type opioid receptor (Rattus norvegicus, UniProt P33535); test: Binding activity against Opioid receptor mu 1 using [3H]DAMGO as radioligand in rat brain membranes.; type: cell membranes
# [6] = target: Kappa-type opioid receptor (Homo sapiens, UniProt P41145); test: Binding affinity against Opioid receptor kappa 1 using [3H]ethylketocyclazocine as radioligand.
# [7] = target: Mu-type opioid receptor (Homo sapiens, UniProt P35372); test: Binding affinity against Opioid receptor mu 1 using [3H]naloxone as radioligand.
# [8] = target: T1, Kappa-type opioid receptor; test: Binding activity against kOpioid receptor kappa 1 using [3H]U-69593 as radioligand in guinea pig membranes.; type: cell membranes
# T1 sequence (P41144 whole entry): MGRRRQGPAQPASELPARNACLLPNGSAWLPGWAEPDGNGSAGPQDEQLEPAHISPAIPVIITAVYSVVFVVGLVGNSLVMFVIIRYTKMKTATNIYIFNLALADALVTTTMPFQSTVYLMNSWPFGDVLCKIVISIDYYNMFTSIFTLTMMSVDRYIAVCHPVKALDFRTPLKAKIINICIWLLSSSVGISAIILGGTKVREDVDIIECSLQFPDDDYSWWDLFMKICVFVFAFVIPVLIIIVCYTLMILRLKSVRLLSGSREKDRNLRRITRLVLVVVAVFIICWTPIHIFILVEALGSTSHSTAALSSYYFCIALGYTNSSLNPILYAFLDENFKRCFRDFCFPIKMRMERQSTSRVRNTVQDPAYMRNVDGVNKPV
# Mu-type opioid receptor (Rattus norvegicus, UniProt P33535), sequence (P33535 whole entry): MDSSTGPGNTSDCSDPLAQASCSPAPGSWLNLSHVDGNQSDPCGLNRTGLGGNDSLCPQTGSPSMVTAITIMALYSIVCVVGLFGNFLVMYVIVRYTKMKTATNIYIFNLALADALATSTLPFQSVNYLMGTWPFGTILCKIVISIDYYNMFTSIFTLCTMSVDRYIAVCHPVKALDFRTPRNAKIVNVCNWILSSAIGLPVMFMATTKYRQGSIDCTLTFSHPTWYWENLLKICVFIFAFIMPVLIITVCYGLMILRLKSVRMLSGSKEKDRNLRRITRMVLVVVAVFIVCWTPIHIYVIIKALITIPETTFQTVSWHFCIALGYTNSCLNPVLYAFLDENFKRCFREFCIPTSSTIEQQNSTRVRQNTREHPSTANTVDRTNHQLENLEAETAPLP
# Delta-type opioid receptor, sequence (P33533 whole entry): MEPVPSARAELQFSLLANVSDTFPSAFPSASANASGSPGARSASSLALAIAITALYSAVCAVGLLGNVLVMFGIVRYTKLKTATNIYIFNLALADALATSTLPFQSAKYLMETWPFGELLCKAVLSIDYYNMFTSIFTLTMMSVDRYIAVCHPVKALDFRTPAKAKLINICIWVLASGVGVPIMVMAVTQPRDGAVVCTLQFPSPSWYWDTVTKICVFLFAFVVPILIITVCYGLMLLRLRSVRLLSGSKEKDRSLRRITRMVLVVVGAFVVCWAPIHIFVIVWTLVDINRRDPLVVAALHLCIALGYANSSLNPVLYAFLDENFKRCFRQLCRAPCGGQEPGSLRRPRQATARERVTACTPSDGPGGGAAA
# Mu-type opioid receptor (Cavia porcellus, UniProt P97266), sequence (P97266 whole entry): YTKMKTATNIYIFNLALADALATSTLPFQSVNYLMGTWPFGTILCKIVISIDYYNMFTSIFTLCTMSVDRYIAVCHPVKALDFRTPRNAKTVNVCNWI
# Mu-type opioid receptor (Homo sapiens, UniProt P35372), sequence (P35372 whole entry): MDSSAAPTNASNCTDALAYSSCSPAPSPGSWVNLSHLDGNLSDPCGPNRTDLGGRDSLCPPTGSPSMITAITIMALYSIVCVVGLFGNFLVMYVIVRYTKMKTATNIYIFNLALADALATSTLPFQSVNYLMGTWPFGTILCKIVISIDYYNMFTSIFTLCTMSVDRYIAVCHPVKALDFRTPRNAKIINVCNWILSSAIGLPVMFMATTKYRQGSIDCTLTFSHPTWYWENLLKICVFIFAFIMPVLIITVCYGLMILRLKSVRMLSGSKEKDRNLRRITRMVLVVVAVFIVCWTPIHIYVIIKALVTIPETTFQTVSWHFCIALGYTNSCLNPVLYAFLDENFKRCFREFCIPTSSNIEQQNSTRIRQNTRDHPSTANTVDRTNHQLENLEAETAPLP
# Kappa-type opioid receptor (Homo sapiens, UniProt P41145), sequence (P41145 whole entry): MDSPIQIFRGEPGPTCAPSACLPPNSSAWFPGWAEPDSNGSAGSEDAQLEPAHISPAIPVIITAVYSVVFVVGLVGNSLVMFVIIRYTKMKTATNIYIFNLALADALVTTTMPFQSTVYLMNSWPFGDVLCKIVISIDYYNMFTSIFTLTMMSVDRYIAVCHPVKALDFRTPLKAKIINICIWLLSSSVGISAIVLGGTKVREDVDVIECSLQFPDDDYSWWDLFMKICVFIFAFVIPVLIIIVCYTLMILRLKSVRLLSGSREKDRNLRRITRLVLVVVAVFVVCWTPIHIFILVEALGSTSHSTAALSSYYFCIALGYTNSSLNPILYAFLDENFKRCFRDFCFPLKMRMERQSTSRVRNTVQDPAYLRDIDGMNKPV
SMILES,Ki [1],Ki [2],Ki [3],Ki [4],Ki [5],Ki [6],Ki [7],Ki [8]
C[C@H]1C2CCCC1(c1cccc(O)c1)CCN2C (some centres not stated),> 10000 nM,21.3 nM,105 nM,816 nM,166 nM,,,
C[C@H]1CN(C)CC[C@@]1(C)c1cccc(O)c1,,,,,,833 nM,80 nM,
C[C@H]1C2CCCC1(c1cccc(O)c1)CCN2CCc1ccccc1 (some centres not stated),272 nM,0.338 nM,1.34 nM,,3.11 nM,,,14.5 nM
